Experiments:
3′ UTR of the TNFα gene = assay: cell-based luciferase reporter assay, 5B cell line (luciferase gene with entire 3′ UTR of the TNFα gene); design: species or system mouse; details: 10 μM compound; for Luciferase 5B (% of DMSO control): 1 h, then LPS, 5B cell line; for Luciferase 5B/3B (% of DMSO control 5B)/(% of DMSO control 3B): ratio of 5B to control 3B cell line
Method: The candidate compounds were tested in a high-throughput, cell-based luciferase reporter assay. For this assay, a commercially available mouse macrophage Raw 264.7 cell line was stably transfected with a construct containing the CMV promoter operably linked to the luciferase gene which was modified using standard molecular biology techniques to contain the entire 3′ UTR of the TNFα gene. This 3′ UTR is important for the stability and translation of TNFα in cells. To control for effects of candidate compounds that are not specific for TNFα, a control cell line, called “3B,” was generated by stably transfecting the 264.7 cell line with a commercially available construct containing the luciferase gene (without the addition of the heterologous 3′ UTR of the TNFα gene) under the regulation of the CMV promoter.
[…] Then, lipopolysaccharide (LPS) was added to stimulate TNFα secretion. Luciferase activity was measured by determining the luminescence intensity due to the reaction of lucifern, ATP, Mg^2+, and molecular O2 (see, for example, Ausubel et al., supra). The luciferase activity in a cell incubated with a candidate compound was reported as a percentage of the luciferase activity for the corresponding cell incubated with DMSO vehicle only.
After correction for any effect caused by the administration of the DMSO only vehicle control, the effect of a candidate compound on luciferase activity in the 3B control cell line represents the global effect of the compound on any step required for expression or activity of luciferase protein, such as luciferase gene transcription, mRNA processing, mRNA stability, translation, protein stability, or enzymatic activity. […] In this case, the luciferase activity in the 5B cell line treated with the DMSO vehicle control is similar to the luciferase activity in the control 3B cell line treated with the candidate compound. Thus, the response of the 5B cell line (as a percent of the DMSO control) and the ratio of the luciferase activity in the 5B cell line (as a percent of the DMSO control) to the luciferase activity in the control 3B cell line (as a percent of the DMSO control) are similar. In desirable embodiments, the response of the 5B cell line and the 5B/3B ratio differ by less than 50, 40, 30, 20, 10, or 5%.

TNFα = assay: ELISA of TNFα secreted into the media after LPS; format: cell-based; details: 10 μM compound, 1 h, then LPS
Method: The ability of candidate compounds to reduce the amount of secreted TNFα was also directly tested using an ELISA assay. […] A standard ELISA analysis was used to measure the amount of TNFα secreted into the media (see, for example, Ausubel et al., supra). The effect of a candidate compound on TNFα secretion in this assay is reported in the following tables as a percentage of the amount of TNFα secreted by a control cell that was administered a DMSO vehicle control only.

| SMILES | Luciferase 5B (% of DMSO control) (3′ UTR of the TNFα gene) | Luciferase 5B/3B (% of DMSO control 5B)/(% of DMSO control 3B) (3′ UTR of the TNFα gene) | TNFα Secretion (% of DMSO control) (TNFα) |
| --- | --- | --- | --- |
| CC(C)C[C@H](NC(=O)c1ccc(C(=O)c2ccccc2)cc1)C(=O)N1CCN(C(=O)CCC(=O)N2CCN(c3ccccc3)CC2)CC1 [MES 10230] | 41 % of DMSO control | 52 (% of DMSO control 5B)/(% of D | 77 % of DMSO control |
| CC(C)CC(NC(=O)c1ccc(C(=NNC(=N)N)c2ccccc2)cc1)C(=O)N1CCN(C(=O)C(CCc2ccccc2)NC(=O)c2ccc(C(=NNC(=N)N)c3ccccc3)cc2)CC1 (mixture of isomers) [MES 10194] | 34 % of DMSO control | 49 (% of DMSO control 5B)/(% of DMSO control 3B) | 22 % of DMSO control |
| CC(C)C[C@H](NC(=O)c1ccccc1)C(=O)N1CCN(C(=O)[C@H](Cc2ccccc2)NC(=O)c2ccc(/C(=N/N=C(N)N)c3ccccc3)cc2)CC1.O=C(O)C(F)(F)F [MES 10249, (E)-Guanylhydrazone of 1-[(S)-N-(4-benzoylbenzoyl)-2-amino-3-phenylpropanoyl]-4-[(2S)-N-(benzoyl)-2-amino-4-methylpentanoyl]-1,4-piperazine trifluoroacetate] | 58 % of DMSO control | 68 (% of DMSO control 5B)/(% of D | 40 % of DMSO control |
| CC(C)CC(NC(=O)c1ccc(C(=NNC(=N)N)c2ccccc2)cc1)C(=O)N1CCN(C(=O)C(Cc2ccc(F)cc2)NC(=O)c2ccc(C(=NNC(=N)N)c3ccccc3)cc2)CC1 (mixture of isomers) [MES 10236] | 18 % of DMSO control | 25 (% of DMSO control 5B)/(% of DMSO control 3B) | 34 % of DMSO control |
| CC(C)CC(NC(=O)c1ccc(C(=NNC(=N)N)c2ccccc2)cc1)C(=O)N1CCN(C(=O)C(Cc2ccc(Cl)cc2)NC(=O)c2ccc(C(=NNC(=N)N)c3ccccc3)cc2)CC1 (mixture of isomers) [MES 10192] | 37 % of DMSO control | 47 (% of DMSO control 5B)/(% of DMSO control 3B) | 17 % of DMSO control |
| CC(C)CC(NC(=O)c1ccccc1)C(=O)N1CCN(C(=O)C(Cc2ccccc2)NC(=O)c2ccc(C(=NNC(=N)N)c3ccccc3)cc2)CC1 (mixture of isomers) [MES 10222] | 36 % of DMSO control | 49 (% of DMSO control 5B)/(% of D | 49 % of DMSO control |
| COc1ccc(CC(NC(=O)c2ccc(C(=NNC(=N)N)c3ccccc3)cc2)C(=O)N2CCN(C(=O)C(CC(C)C)NC(=O)c3ccc(C(=NNC(=N)N)c4ccccc4)cc3)CC2)cc1 (mixture of isomers) [MES 10237] | 20 % of DMSO control | 27 (% of DMSO control 5B)/(% of DMSO control 3B) | 39 % of DMSO control |
| CC(C)CC(NC(=O)c1ccc(C(=NNC(=N)N)c2ccccc2)cc1)C(=O)N1CCN(C(=O)C(Cc2ccccc2)NC(=O)c2ccccc2)CC1 (stereo not drawn) [MES 10248] | 56 % of DMSO control | 72 (% of DMSO control 5B)/(% of D | 39 % of DMSO control |

Source: patent US6872850B2, “Small molecule inhibitors of secretion of proteins encoded by ARE-mRNAs” (Message Pharmaceuticals, priority 2001, dated 2005)
